Experimental data from patent US20210183467A1, “SYSTEM AND METHOD FOR USING MICROBIOME TO DE-RISK DRUG DEVELOPMENT” (YALE UNIVERSITY, priority 2018, published 2021).

How the values were obtained:
[1] = Physiologically based multi-compartment pharmacokinetic model; set-up: species or system mouse; details: GN^WT mice, oral BRV
Description: These quantitative measurements of drug and metabolite levels, collected over time, were used in various compartments, and in the presence and absence of microbial drug metabolism, to build the predictor module 130 which implements a physiologically based pharmacokinetic model to predict the levels and source of systemic drug and metabolite exposure over time, and quantify the contribution of host and microbiota to systemic drug and metabolite exposure. First, to parameterize processes independent from microbial BRV metabolism (grey compartments in FIG. 19A), a global optimization procedure was used to fit measured BRV and BVU kinetics in serum and intestinal compartments of GN^MUT mice. […]
Measured BRV and BVU kinetics in serum and intestinal compartments of GN^MUT mice were used to parameterize processes independent from bacterial BRV conversion (grey compartments as illustrated in FIG. 19A) using the global optimization procedure to best fit the measured data. […]
To parameterize processes dependent on microbial BRV metabolism (green compartments in FIG. 19A), including bacterial BRV to BVU conversion (kc^B) and BVU absorption rates from cecum and colon (KaLI1^M and kaLI2^M), measured BRV and BVU kinetics in cecum and colon (but not serum) of GN^WT mice, as illustrated in FIGS. 19C and 20A, are used. […]

[2] = format: in vivo, C57BL/6J mice
Experimental: Germfree mice were colonized with the wildtype and mutant strains. BRV was administered.
Individually caged GF C57BL/6J mice are colonized by oral gavage with 200 μL of an overnight GMM culture of either B. thetaiotaomicron wild type or bt4554 strains to generate GN^WT or GN^MUT mice, respectively. After 4 days, bacterial loads are determined by CFU plating on BHI blood agar prior to drug treatment.
(§1) Each drug treatment is performed using 20 treated and 5 to 6 untreated animals. Both genders are equally represented in each group and evenly distributed across the different time points for sample collection. Animals (n=5 per time point and group) are given 100 mg/kg body weight of BRV or SRV as suspensions in PBS (200 μL PBS for controls) by oral gavage. One blood sample is collected from each animal at an early time point (0.5, 1, 1.5, or 2 hours after drug administration) by submandibular bleeding. At 3, 5, 7, and 9 h, mice are sacrificed and tissue samples are collected into sample tubes and snap-frozen. Fecal samples are collected before euthanization and re-suspended in PBS (1 mL) through vigorous shaking. 20 μL are then plated on BHI blood plates and incubated aerobically and anaerobically at 37° C. to check GF, GN^WT, and GN^MUT animals for contamination. Monocolonized mice are also checked for contamination by PCR using primers 7 and 8.

[3] = Oral BRV in conventional (CV) and germfree (GF) mice, drug and metabolite levels; format: in vivo, C57BL/6 mice
Experimental: Oral BRV was administered to conventional (CV) and germfree (GF) C57BL/6 mice, and BRV and BVU concentrations were measured over time along the length of the gastrointestinal tract as shown in FIG. 4C. Serum kinetics of BRV and BVU in conventional (CV) and germ-free (GF) mice were compared following oral BRV administration.
All experiments using mice are performed using protocols approved by the Yale University Institutional Animal Care and Use Committee. Germfree (GF) 8 to 12 week old C57BL/6J mice are maintained in flexible plastic gnotobiotic isolators with a 12-hour light/dark cycle and GF status monitored by PCR and culture-based methods. Conventional C57BL/6J mice (Jackson Laboratories) are purchased at the age of 6-7 weeks and kept in the lab for 2-3 weeks before experiments. All mice are provided a standard, autoclaved mouse chow (5013 LabDiet, Purina) ad libitum.
as §1
200 μL of 0.1 mm zirconia/silica beads (BioSpec Products) and 500 μL of organic solvent (acetonitrile:methanol, 1:1) supplemented with internal standard are added to 50-350 mg of pre-weighed solid material. Material is homogenized by mechanical disruption with a bead beater (BioSpec Products) set for 2 minutes on high setting at room temperature. After incubation for at least 1 h at −20° C., samples are centrifuged (3220 rcf, −9° C.) for 15 min. 10 μL of supernatant are diluted with 10 μL H2O for analysis by LC-MS.
Samples for LS-MS analysis are prepared as described above. Chromatographic separation is performed on a C18 Kinetex Evo column (Phenomenex, 100 mm×2.1 mm, […]) using mobile phase A: H2O, 0.1% formic acid and B: methanol, 0.1% formic acid at 45° C. 5 μL of sample are injected at 100% A and 0.4 mL/min flow followed by a linear gradient to 95% B over 5.5 min and 0.4 mL/min flow leading to thymine, BVU, SRV, and BRV elution at 0.95, 2.0, 2.15, and 2.4 min, respectively. The internal standards caffeine and sulfamethoxazole elute at 1.9 and 2.1 min, respectively. The qTOF is operated in positive scanning mode (50-1000 m/z) and the following source parameters: VCap is 3500 V; nozzle voltage is 2000 V; gas temp is 225 C; drying gas 13 L/min; nebulizer is 20 psig; sheath gas temp is 225 C; and sheath gas flow is 12 L/min. Online mass calibration is performed using a second ionization source and a constant flow (5 μL/min) of reference solution (121.0509 and 922.0098 m/z). Compounds are identified based on the retention time of chemical standards and their accurate mass (tolerance 20 ppm).

O=c1[nH]cc(/C=C/Br)c(=O)[nH]1 [BVU, bromovinyluracil]
microbial share of total BVU exposure in serum (area under the curve) [1]: 77%
serum BVU levels ([2]; GN^WT compared to GN^MUT mice): significantly higher
absorption of BVU from cecum and colon ([2]; GN^WT mice): almost entirely absorbed
BVU levels in the liver ([2]; GN^WT mice after BRV administration): increased BVU levels
BVU concentrations in the liver ([3]; CV compared to GF mice, oral BRV): increased
BVU intestinal concentrations ([3]; CV mice compared to GF controls, oral BRV): increased intestinal concentrations
concentrations of BVU in serum ([3]; CV versus GF mice, later timepoints after oral BRV): significantly higher
